From ChEMBL document CHEMBL3885861, “Open TG-GATES”

Species: Rattus norvegicus
Test: Open TG-GATES - Regimen: Single
Type: toxicity, organism-based, Sprague-Dawley
Design: regimen Single, gender Male, age 6 weeks
Settings: in vivo, po, route gavage; for gamma-GTP / ALP / ALT / AST / BUN / CRE / Ca / Cl / DBIL / GLC / IP / K / LDH / Na / PL / RALB / TBIL / TC / TG / TP: tissue Plasma; for APTT / Bas / Eos / Fbg / Hb / Ht / Lym / MCH / MCHC / Mono / Neu / Plat / RBC / Ret / WBC: tissue Blood; for KIDNEY_L / KIDNEY_R / KIDNEY_TOTAL: tissue Kidney; for LIVER: tissue Liver

O=C(CCCN1CCC(O)(c2ccc(Cl)cc2)CC1)c1ccc(F)cc1 [HALOPERIDOL]
gamma-GTP (0 mg/kg, 24 h, dose level Control): 1 IU/L
TERMINAL_BW (3 mg/kg, 3 h, dose level Low): 203.1 g
APTT (3 mg/kg, 3 h, dose level Low): 16.9 s
Bas (3 mg/kg, 3 h, dose level Low): 0%
Eos (3 mg/kg, 3 h, dose level Low): 0.8%
Fbg (3 mg/kg, 3 h, dose level Low): 205.8 mg/dL
Hb (3 mg/kg, 3 h, dose level Low): 13.5 g/dL
Ht (3 mg/kg, 3 h, dose level Low): 40.4%
Lym (3 mg/kg, 3 h, dose level Low): 70.4%
MCH (3 mg/kg, 3 h, dose level Low): 21.8 pg
MCHC (3 mg/kg, 3 h, dose level Low): 33.5%
Mono (3 mg/kg, 3 h, dose level Low): 8.2%
Neu (3 mg/kg, 3 h, dose level Low): 20.6%
Plat (3 mg/kg, 3 h, dose level Low): 101.1 x10_4/uL
RBC (3 mg/kg, 3 h, dose level Low): 620.8 x10_4/ul
Ret (3 mg/kg, 3 h, dose level Low): 8.3%
WBC (3 mg/kg, 3 h, dose level Low): 102.1 x10_2/uL
KIDNEY_L (3 mg/kg, 3 h, dose level Low): 0.9 g
KIDNEY_R (3 mg/kg, 3 h, dose level Low): 0.9 g
KIDNEY_TOTAL (3 mg/kg, 3 h, dose level Low): 1.8 g
LIVER (3 mg/kg, 3 h, dose level Low): 9.6 g
ALP (3 mg/kg, 3 h, dose level Low): 1074.8 IU/L
ALT (3 mg/kg, 3 h, dose level Low): 42.2 IU/L
AST (3 mg/kg, 3 h, dose level Low): 61.2 IU/L
BUN (3 mg/kg, 3 h, dose level Low): 12.6 mg/dL
CRE (3 mg/kg, 3 h, dose level Low): 0.5 mg/dL
Ca (3 mg/kg, 3 h, dose level Low): 11.1 mg/dL
Cl (3 mg/kg, 3 h, dose level Low): 105.2 meq/L
DBIL (3 mg/kg, 3 h, dose level Low): 0.028 mg/dL
GLC (3 mg/kg, 3 h, dose level Low): 202.8 mg/dL
IP (3 mg/kg, 3 h, dose level Low): 10.4 mg/dL
K (3 mg/kg, 3 h, dose level Low): 4.7 meq/L
LDH (3 mg/kg, 3 h, dose level Low): 92.6 IU/L
Na (3 mg/kg, 3 h, dose level Low): 139.4 meq/L
PL (3 mg/kg, 3 h, dose level Low): 141.2 mg/dL
RALB (3 mg/kg, 3 h, dose level Low): 3.6 g/dL
TBIL (3 mg/kg, 3 h, dose level Low): 0.3 mg/dL
TC (3 mg/kg, 3 h, dose level Low): 78.6 mg/dL
TG (3 mg/kg, 3 h, dose level Low): 41.6 mg/dL
TP (3 mg/kg, 3 h, dose level Low): 5.7 g/dL
gamma-GTP (3 mg/kg, 3 h, dose level Low): 1.4 IU/L
TERMINAL_BW (3 mg/kg, 6 h, dose level Low): 200.5 g
APTT (3 mg/kg, 6 h, dose level Low): 16.6 s
Bas (3 mg/kg, 6 h, dose level Low): 0%
Eos (3 mg/kg, 6 h, dose level Low): 0.6%
Fbg (3 mg/kg, 6 h, dose level Low): 205.2 mg/dL
Hb (3 mg/kg, 6 h, dose level Low): 13.5 g/dL
Ht (3 mg/kg, 6 h, dose level Low): 40.5%
Lym (3 mg/kg, 6 h, dose level Low): 77%
MCH (3 mg/kg, 6 h, dose level Low): 21.7 pg
MCHC (3 mg/kg, 6 h, dose level Low): 33.3%
Mono (3 mg/kg, 6 h, dose level Low): 7.2%
Neu (3 mg/kg, 6 h, dose level Low): 15.2%
Plat (3 mg/kg, 6 h, dose level Low): 103.7 x10_4/uL
RBC (3 mg/kg, 6 h, dose level Low): 619.8 x10_4/ul
Ret (3 mg/kg, 6 h, dose level Low): 8.8%
WBC (3 mg/kg, 6 h, dose level Low): 90.9 x10_2/uL
KIDNEY_L (3 mg/kg, 6 h, dose level Low): 0.9 g
KIDNEY_R (3 mg/kg, 6 h, dose level Low): 0.9 g
KIDNEY_TOTAL (3 mg/kg, 6 h, dose level Low): 1.9 g
LIVER (3 mg/kg, 6 h, dose level Low): 9 g
ALP (3 mg/kg, 6 h, dose level Low): 897.8 IU/L
ALT (3 mg/kg, 6 h, dose level Low): 34.4 IU/L
AST (3 mg/kg, 6 h, dose level Low): 57.2 IU/L
BUN (3 mg/kg, 6 h, dose level Low): 9.6 mg/dL
CRE (3 mg/kg, 6 h, dose level Low): 0.4 mg/dL
Ca (3 mg/kg, 6 h, dose level Low): 10.6 mg/dL
Cl (3 mg/kg, 6 h, dose level Low): 105.8 meq/L
DBIL (3 mg/kg, 6 h, dose level Low): 0.034 mg/dL
GLC (3 mg/kg, 6 h, dose level Low): 184.4 mg/dL
IP (3 mg/kg, 6 h, dose level Low): 10.6 mg/dL
K (3 mg/kg, 6 h, dose level Low): 4.9 meq/L
LDH (3 mg/kg, 6 h, dose level Low): 81.6 IU/L
Na (3 mg/kg, 6 h, dose level Low): 139.2 meq/L
PL (3 mg/kg, 6 h, dose level Low): 142 mg/dL
RALB (3 mg/kg, 6 h, dose level Low): 3.6 g/dL
TBIL (3 mg/kg, 6 h, dose level Low): 0.3 mg/dL
TC (3 mg/kg, 6 h, dose level Low): 84.4 mg/dL
TG (3 mg/kg, 6 h, dose level Low): 32.4 mg/dL
TP (3 mg/kg, 6 h, dose level Low): 5.4 g/dL
gamma-GTP (3 mg/kg, 6 h, dose level Low): 1.6 IU/L
TERMINAL_BW (3 mg/kg, 9 h, dose level Low): 199.3 g
APTT (3 mg/kg, 9 h, dose level Low): 16.8 s
Bas (3 mg/kg, 9 h, dose level Low): 0%
Eos (3 mg/kg, 9 h, dose level Low): 0.6%
Fbg (3 mg/kg, 9 h, dose level Low): 204.8 mg/dL
Hb (3 mg/kg, 9 h, dose level Low): 13.6 g/dL
Ht (3 mg/kg, 9 h, dose level Low): 40.5%
Lym (3 mg/kg, 9 h, dose level Low): 70.4%
MCH (3 mg/kg, 9 h, dose level Low): 22 pg
MCHC (3 mg/kg, 9 h, dose level Low): 33.6%
Mono (3 mg/kg, 9 h, dose level Low): 9.6%
Neu (3 mg/kg, 9 h, dose level Low): 19.4%
Plat (3 mg/kg, 9 h, dose level Low): 102.7 x10_4/uL
RBC (3 mg/kg, 9 h, dose level Low): 621.4 x10_4/ul
Ret (3 mg/kg, 9 h, dose level Low): 9.5%
WBC (3 mg/kg, 9 h, dose level Low): 60.9 x10_2/uL
KIDNEY_L (3 mg/kg, 9 h, dose level Low): 0.9 g
KIDNEY_R (3 mg/kg, 9 h, dose level Low): 1 g
KIDNEY_TOTAL (3 mg/kg, 9 h, dose level Low): 1.9 g
LIVER (3 mg/kg, 9 h, dose level Low): 8.5 g
ALP (3 mg/kg, 9 h, dose level Low): 810.6 IU/L
ALT (3 mg/kg, 9 h, dose level Low): 28.4 IU/L
AST (3 mg/kg, 9 h, dose level Low): 56.6 IU/L
BUN (3 mg/kg, 9 h, dose level Low): 10.2 mg/dL
CRE (3 mg/kg, 9 h, dose level Low): 0.5 mg/dL
Ca (3 mg/kg, 9 h, dose level Low): 10.2 mg/dL
Cl (3 mg/kg, 9 h, dose level Low): 106.6 meq/L
DBIL (3 mg/kg, 9 h, dose level Low): 0.018 mg/dL
GLC (3 mg/kg, 9 h, dose level Low): 183.4 mg/dL
IP (3 mg/kg, 9 h, dose level Low): 10.6 mg/dL
K (3 mg/kg, 9 h, dose level Low): 4.6 meq/L
LDH (3 mg/kg, 9 h, dose level Low): 84 IU/L
Na (3 mg/kg, 9 h, dose level Low): 139.2 meq/L
PL (3 mg/kg, 9 h, dose level Low): 126.6 mg/dL
RALB (3 mg/kg, 9 h, dose level Low): 3.6 g/dL
TBIL (3 mg/kg, 9 h, dose level Low): 0.4 mg/dL
TC (3 mg/kg, 9 h, dose level Low): 71 mg/dL
TG (3 mg/kg, 9 h, dose level Low): 31.2 mg/dL
TP (3 mg/kg, 9 h, dose level Low): 5.5 g/dL
gamma-GTP (3 mg/kg, 9 h, dose level Low): 1.8 IU/L
TERMINAL_BW (3 mg/kg, 24 h, dose level Low): 213.8 g
APTT (3 mg/kg, 24 h, dose level Low): 15.9 s
Bas (3 mg/kg, 24 h, dose level Low): 0%
Eos (3 mg/kg, 24 h, dose level Low): 1.2%
Fbg (3 mg/kg, 24 h, dose level Low): 198.8 mg/dL
Hb (3 mg/kg, 24 h, dose level Low): 13.6 g/dL
Ht (3 mg/kg, 24 h, dose level Low): 40.8%
Lym (3 mg/kg, 24 h, dose level Low): 75.6%
MCH (3 mg/kg, 24 h, dose level Low): 22.6 pg
MCHC (3 mg/kg, 24 h, dose level Low): 33.3%
Mono (3 mg/kg, 24 h, dose level Low): 6%
Neu (3 mg/kg, 24 h, dose level Low): 17.2%
Plat (3 mg/kg, 24 h, dose level Low): 105.6 x10_4/uL
RBC (3 mg/kg, 24 h, dose level Low): 601 x10_4/ul
Ret (3 mg/kg, 24 h, dose level Low): 9.4%
WBC (3 mg/kg, 24 h, dose level Low): 75.9 x10_2/uL
KIDNEY_L (3 mg/kg, 24 h, dose level Low): 1 g
KIDNEY_R (3 mg/kg, 24 h, dose level Low): 1 g
KIDNEY_TOTAL (3 mg/kg, 24 h, dose level Low): 1.9 g
LIVER (3 mg/kg, 24 h, dose level Low): 11.3 g
ALP (3 mg/kg, 24 h, dose level Low): 957.8 IU/L
ALT (3 mg/kg, 24 h, dose level Low): 35 IU/L
AST (3 mg/kg, 24 h, dose level Low): 59.2 IU/L
BUN (3 mg/kg, 24 h, dose level Low): 21.2 mg/dL
CRE (3 mg/kg, 24 h, dose level Low): 0.6 mg/dL
Ca (3 mg/kg, 24 h, dose level Low): 11.3 mg/dL
Cl (3 mg/kg, 24 h, dose level Low): 105.4 meq/L
DBIL (3 mg/kg, 24 h, dose level Low): 0.026 mg/dL
GLC (3 mg/kg, 24 h, dose level Low): 180.8 mg/dL
IP (3 mg/kg, 24 h, dose level Low): 7.9 mg/dL
K (3 mg/kg, 24 h, dose level Low): 5 meq/L
LDH (3 mg/kg, 24 h, dose level Low): 104.8 IU/L
Na (3 mg/kg, 24 h, dose level Low): 139.2 meq/L
PL (3 mg/kg, 24 h, dose level Low): 156.6 mg/dL
RALB (3 mg/kg, 24 h, dose level Low): 3.8 g/dL
TBIL (3 mg/kg, 24 h, dose level Low): 0.4 mg/dL
TC (3 mg/kg, 24 h, dose level Low): 80.6 mg/dL
TG (3 mg/kg, 24 h, dose level Low): 102.4 mg/dL
TP (3 mg/kg, 24 h, dose level Low): 5.9 g/dL
